According to PMC11870044, “Exploring the Antibacterial and Antiparasitic Activity of Phenylaminonaphthoquinones—Green Synthesis, Biological Evaluation and Computational Study” (International Journal of Molecular Sciences, 2024):
Converted amounts (≈) assume the structure as drawn. Where two headings read alike, the source gives them in different places.

Tests used:
[1] = test system: Salmonella typhimurium (ATCC 19585); assay: Minimum inhibitory concentration, broth dilution method; type: cell-based; conditions: Salmonella enterica, read-out: MIC S. typhimurium G−
Method: (§1) The microorganisms used were Staphylococcus aureus (ATCC 25923), Proteus mirabilis (ATCC 12453) Enterococcus faecalis (ATCC 29212), Escherichia coli (ATCC 25922), Salmonella typhimurium (ATCC 19585), and Klebsiella pneumoniae (ATCC 700603).
(§2) The antimicrobial activity of the phenylaminonaphthoquinones 1–12 was determined by the broth dilution method. The following concentrations were tested: 200, 100, 50, 25, and 12.5 μg/mL. After incubation, the microbial growth was examined. The results are expressed in minimum inhibitory concentration (MIC), the lowest concentration of phenylaminonaphthoquinones with no visible growth. The bactericidal/bacteriostatic activity was determined by sub-cultivation of the samples in normal culture media at appropriate temperatures and incubation times. The MIC of each compound was performed in triplicate. The compounds 1–12 were dissolved in DMSO. Cefazolin and cefotaxime were used as positive controls at the same compound concentrations.

[2] = test system: Proteus mirabilis (ATCC 12453); assay: as above; type: cell-based
Method: as §1, §2

[3] = test system: Enterococcus faecalis (ATCC 29212); assay: as above; type: cell-based
Method: as §1, §2

[4] = test system: Klebsiella pneumoniae (ATCC 700603); assay: as above; type: cell-based
Method: as §1, §2

[5] = test system: Escherichia coli (ATCC 25922); assay: as above; type: cell-based
Method: as §1, §2

[6] = test system: Staphylococcus aureus (ATCC 25923); assay: as above; type: cell-based; conditions: for MIC: Staphylococcus aureus; for MIC S. aureus G+: broth dilution
Method: as §1, §2

[7] = Experimental log P, shake-flask method n-octanol/water; type: physicochemical; conditions: 25 ± 1 °C
Method: The mixture was then allowed to stand for 24 h at the same temperature for further phase separation. A stock solution with a concentration of 0.01 mol per liter in water, pre-saturated with n-octanol, was prepared for each compound. Duplicate test vessels containing a mixture of the stock solution and n-octanol (pre-saturated with water) were shaken on a vortex shaker for 5 min. Phase separation was achieved by centrifugation of the vessels for 3 min at 4000× g (25 ± 1 °C), and the concentration of the solute in the water phase (C water) was measured from their absorbance at 205 nm using a UV spectrophotometer. The partition coefficient was calculated using the following equation. Log Po/w = Log(C n-octanol/C water)
All the measurements were carried out at room temperature (25 ± 1 °C). In order to check the performance of the method, aniline was used as a reference substance.

[8] = test system: Plasmodium falciparum 3D7 (chloroquine-sensitive); assay: In vitro antiplasmodial screening, parasitemia by flow cytometry; type: cell-based; parameters: Plasmodium falciparum 3D7 Growth Inhibition (%): concentration or dose not given beside the values; conditions: for Plasmodium falciparum 3D7 Growth Inhibition (%): mean ± SD; for IC50: Plasmodium falciparum
Method: (§3) The antimalarial activity assay was performed using Plasmodium falciparum 3D7 (chloroquine-sensitive) and FCR-3 (chloroquine-resistant) reference strains, which were cultured in vitro following the method described by Trager et al. with some modifications.
(§4) The experiments were performed in 96-well culture plates, where the stock solutions of compounds 1–12 (1, 0.1, 0.01, and 0.001 µg/mL) were tested. A total of 100 µL of each product was distributed in triplicate on the culture plates, and 100 µL of a red blood cell suspension (4% hematocrit, final parasitemia of 1% ring stage) was added, resulting in a final volume of 200 µL. The test plates were incubated at 37 °C for 48 h, and parasitemia was determined by flow cytometry (BDFACScalibur). Erythrocytes were taken from each well culture plate, and 100 µL of ethidium bromide (10 µg/mL) was added and incubated for 30 min. A total of 100,000 cells per well culture plate were acquired and analyzed. The IC50 of the pure products was determined by a regression curve of the percentage inhibition of parasite activity as a function of the logarithmic dose. Chloroquine diphosphate was used as the reference drug.

[9] = test system: Plasmodium falciparum FCR-3 (chloroquine-resistant); assay: as above; type: cell-based; parameters: Plasmodium falciparum FCR-3 Growth Inhibition (%): concentration or dose not given beside the values; conditions: for Plasmodium falciparum FCR-3 Growth Inhibition (%): mean ± SD; for IC50: Plasmodium falciparum, read-out: Plasmodium falciparum FCR-3 IC50
Method: as §3, §4

[10] = ATCC12453, broth dilution, triplicate, read-out: MIC P. mirabilis G+
[11] = ATCC29212, broth dilution, triplicate, read-out: MIC E. faecalis G+
[12] = ATCC700603, broth dilution, triplicate, read-out: MIC K. pneumonia G−
[13] = ATCC25922, broth dilution, triplicate, read-out: MIC E. coli G−
[14] = ATCC25923, broth dilution, triplicate, read-out: MIC S. aureus G+
[15] = 3D7 chloroquine-sensitive, 48 h
[16] = 3D7 chloroquine-sensitive, 48 h, read-out: Plasmodium falciparum 3D7 IC50
[17] = FCR-3 chloroquine-resistant, 48 h
[18] = FCR3, FCR-3 chloroquine-resistant, 48 h

Compound | MIC ([1]; broth dilution, triplicate) | MIC [2, 10] | MIC [3, 11] | MIC [4, 12] | MIC [5, 13] | MIC [6, 14] | logP [7] | MIC S. aureus G+ ([6]; triplicate) | Plasmodium falciparum 3D7 Growth Inhibition (%) [8, 15] | IC50 [8, 16] | Plasmodium falciparum FCR-3 Growth Inhibition (%) [9, 17] | IC50 [9, 18] | other results
Cc1ccccc1NC1=CC(=O)c2ccccc2C1=O [Compound 3] | 13.2 µg/mL (≈ 50.1 µM) | 19.9 µg/mL (≈ 75.6 µM) | 50 µg/mL (≈ 190 µM) | 26.3 µg/mL (≈ 99.9 µM) | 25.5 µg/mL (≈ 96.8 µM) | 3.2 to 5.7 µg/mL (≈ 12.2 to 21.6 µM) | 1.89 ± 1.12 | 3.8 µg/mL (≈ 14.4 µM) | 98.0 ± 1.0% | 0.0049 µg/mL | 97.0 ± 0.2% | 0.12 µg/mL (≈ 0.456 µM) | Enhancement of antiplasmodial activity versus literature 2-amino/2-phenylaminonaphthoquinones ([8]; 3D7 strain, equimolar comparison): more than 250 fold; Potency relative to chloroquine against 3D7 strain ([8]; IC50 0.0049 vs 0.06 μg/mL): more than 10 fold; IC50 ([8]; 3D7, read-out: IC50 against 3D7 strain at equimolar concentrations): 18.6 nM
O=C1C(Cl)=C(Nc2ccccc2)C(=O)c2ccccc21 [Compound 2] | > 50 µg/mL | 39.9 µg/mL (≈ 141 µM) | > 50 µg/mL | > 50 µg/mL | > 50 µg/mL | 36.5 µg/mL (≈ 129 µM) | 1.61 ± 0.11 |  | 37.0 ± 1.0% | > 1 µg/mL | 13.0 ± 2.0% | > 1 µg/mL | 
COc1ccc(NC2=CC(=O)c3ccccc3C2=O)cc1 [Compound 7] |  |  |  |  |  |  | 1.39 ± 0.15 | 5.7 µg/mL (≈ 20.4 µM) | 49.0 ± 2.0% |  | 57.0 ± 1.0% |  | MIC [1]: 29.9 µg/mL (≈ 107 µM); MIC ([2]; ATCC12453, read-out: MIC P. mirabilis G+): 18.4 µg/mL (≈ 65.9 µM); MIC ([3]; ATCC29212, read-out: MIC E. faecalis G+): 31.2 µg/mL (≈ 112 µM); MIC ([4]; ATCC700603, read-out: MIC K. pneumonia G−): 37.3 µg/mL (≈ 134 µM); MIC ([5]; ATCC25922, read-out: MIC E. coli G−): > 50 µg/mL; MIC ([6]; ATCC25923, read-out: MIC S. aureus G+, broth dilution, triplicate): 3.2 to 5.7 µg/mL (≈ 11.5 to 20.4 µM); IC50 ([8]; 3D7, 48 h, read-out: Plasmodium falciparum 3D7 IC50): > 1 µg/mL; IC50 ([9]; FCR3, 48 h): 0.88 µg/mL (≈ 3.15 µM)
O=C1C(Cl)=C(Nc2ccc(O)cc2)C(=O)c2ccccc21 [Compound 6] | 20 µg/mL (≈ 66.7 µM) | 29.9 µg/mL (≈ 99.8 µM) | 49.9 µg/mL (≈ 166 µM) | 40 µg/mL (≈ 133 µM) | 39.8 µg/mL (≈ 133 µM) | 19.6 µg/mL (≈ 65.4 µM) | 1.22 ± 0.13 |  | 41.0 ± 2.0% | > 1 µg/mL | 56.0 ± 3.0% | 0.87 µg/mL (≈ 2.9 µM) | 
CN(C1=C(Cl)C(=O)c2ccccc2C1=O)c1ccccc1 [Compound 12] | 50 µg/mL (≈ 168 µM) | 11.5 µg/mL (≈ 38.6 µM) | 47.2 µg/mL (≈ 159 µM) | > 50 µg/mL | 28.6 µg/mL (≈ 96.1 µM) | 29 µg/mL (≈ 97.4 µM) | 2.33 ± 0.02 |  | 62.0 ± 5.0% | 0.8 µg/mL | 25.0 ± 5.0% | > 1 µg/mL | 

Now from value to compound, other results behind:

MIC ([1]; broth dilution, triplicate) | MIC [2, 10] | MIC [3, 11] | MIC [4, 12] | MIC [5, 13] | MIC [6, 14] | logP [7] | Compound | MIC S. aureus G+ ([6]; triplicate) | Plasmodium falciparum 3D7 Growth Inhibition (%) [8, 15] | IC50 [8, 16] | Plasmodium falciparum FCR-3 Growth Inhibition (%) [9, 17] | IC50 [9, 18] | other results
8.2 µg/mL (≈ 18 µM) | 8.9 µg/mL (≈ 19.5 µM) | 10.9 µg/mL (≈ 23.9 µM) | 8.4 µg/mL (≈ 18.4 µM) | > 50 µg/mL | 8.9 µg/mL (≈ 19.5 µM) |  | CO/N=C(\C(=O)N[C@@H]1C(=O)N2C(C(=O)O)=C(COC(C)=O)CS[C@H]12)c1csc(N)n1 [CTX, cefotaxime, reference compound] |  |  |  |  |  | 
31.7 µg/mL (≈ 92.2 µM) | > 50 µg/mL | 70.8 µg/mL (≈ 206 µM) | > 50 µg/mL | 23.5 µg/mL (≈ 68.4 µM) | 3.2 to 5.7 µg/mL (≈ 9.31 to 16.6 µM) | 1.94 ± 0.56 | COc1ccc(OC)c(NC2=C(Cl)C(=O)c3ccccc3C2=O)c1 [Compound 10] | 4.7 µg/mL (≈ 13.7 µM) | 20.0 ± 3.0% | > 1 µg/mL | 21.0 ± 4.0% | > 1 µg/mL | 
43.8 µg/mL (≈ 142 µM) | 29.9 µg/mL (≈ 96.7 µM) | 38.2 µg/mL (≈ 123 µM) | > 50 µg/mL | > 50 µg/mL | > 50 µg/mL | 1.6 ± 0.23 | COc1ccc(OC)c(NC2=CC(=O)c3ccccc3C2=O)c1 [Compound 9] |  | 33.0 ± 1.0% | > 1 µg/mL | 24.0 ± 2.0% | > 1 µg/mL | 
